Data reported in patent US10736864B2, “Immunotherapeutic agent” (Immodulon Therapeutics Limited, priority 2016, dated 2020).

Legend:
[1] = tested on: splenocytes stimulated in vitro with ovalbumin; experiment: In vitro splenocyte culture from treated mice, ovalbumin stimulation (cytokine ELISA); format: in vivo, BALB/c mice; details: FIG. 3B; mice treated 5 μg s.c.; allergen (ovalbumin) stimulation; vs buffer
[2] = tested on: allergic mice challenged with ovalbumin; experiment: Murine model of allergic pulmonary inflammation: treatment studies (BAL cells and cytokines); format: in vivo, BALB/c mice; details: vs vehicle; for number of eosinophils recovered in the BAL fluid / numbers of macrophages in BAL fluid / total cellular infiltrate in BAL fluid / IL-5 concentrations in the BAL fluid / IL-10 concentrations in the BAL fluid: Experiments 5 and 6, lipid 5 μg s.c.; for number of eosinophils recovered in the BAL fluid / numbers of macrophages in BAL fluid / total cellular infiltrate in BAL fluid: M. vaccae 0.1 mg s.c.
[3] = tested on: freshly isolated murine peritoneal macrophages; experiment: Proinflammatory cytokine and chemokine ligand mRNA levels (RNAseq) in LPS-stimulated peritoneal macrophages; format: cell-based
Method: This can be measured using RNAseq analysis of freshly isolated murine peritoneal macrophages stimulated with LPS, in the presence or absence of 10(Z)-hexadecenoic acid. […] Compounds of the invention are therefore useful in inhibiting the proinflammatory cascade that contributes to the pathology of sepsis.
This difference was observable as early as 6 h after LPS challenge, and was sustained for at least 24 h. The effect also appeared to be concentration and time dependent. The lowest concentration of 0.4 μM was ineffective at 6 h, but reduced IL-6 secretion to 40% of control levels at 24 h. This time and concentration dependence may indicate that a receptor-mediated transcriptional change is occurring. In contrast to the effects of 10(Z)-hexadecenoic acid on LPS-induced IL-6 secretion, it had no effect of IL-6 secretion by itself (FIG. 4D). A transcriptional change was confirmed by measurement of pro-inflammatory cytokine and chemokine ligand mRNA levels in macrophages pre-treated with 10(Z)-hexadecenoic acid for 1 h prior to LPS treatment (Table 2).

[4] = tested on: freshly isolated murine peritoneal macrophages; experiment: LPS-induced IL-6 secretion in freshly isolated peritoneal macrophages (ELISA); format: cell-based, BALB/c mice
Method: Experiment 7 was carried out to resolve if 10(Z)-hexadecenoic acid has a direct effect on immune cells. Macrophages were selected for this study on account of their ubiquity and diverse role in immune processes. To simulate inflammation, freshly isolated mouse peritoneal macrophages were challenged with lipopolysaccharide (LPS; 1 μg/mL) ex vivo.
Murine peritoneal macrophages were isolated as previously described (Zhang, X. et al. (2008)). Briefly, mice received one 1 ml i.p. injection of 3% thioglycollate medium (Cat. No. 9000-294, VWR, Radnor, Pa., USA). Ninety-six hours later, macrophages were collected in DPBS (Cat. No. 14190136, Invitrogen, Carlsbad, Calif., USA). Cells were centrifuged and resuspended in DMEM/F-12 (Cat. No. 10565018, Invitrogen) supplemented to be 10% (v/v) fetal bovine serum (Cat. No. 16000036, Invitrogen) and 1% penicillin/streptomycin (Cat. No. 15140148, Invitrogen). One mouse yielded enough cells for one experimental replicate. 1×10^5 cells/well were allowed to adhere for 1.5 h before being washed with DPBS. 10(Z)-hexadecenoic acid was dissolved in DMEM/F-12 with 0.5% (v/v) dimethyl sulfoxide (Cat. No. D8418, Sigma-Aldrich). The macrophages were incubated with either 10(Z)-hexadecenoic acid (0.4 μM, 4 μM, 20 μM, 100 μM, 500 μM, 1000 μM) or DMEM/F-12 for 1 h before being stimulated with 1 μg/ml lipopolysaccharide (serotype 0127:B8, Sigma-Aldrich, St. Louis, Mo., USA). Culture supernatants were collected at 6, 12, and 24 h post-stimulation.
Cell culture supernatants from freshly isolated peritoneal macrophages were diluted 1:200, and IL-6 was measured using sandwiched ELISA (Cat. No. 431304, Biolegend, San Diego, Calif., USA). All samples were measured in duplicate.

[5] = tested on: freshly isolated murine peritoneal macrophages; experiment: Sulforhodamine B (SRB) macrophage cell viability / cytotoxicity assay
Method: Sulforhodamine B (SRB) was used to assess cytotoxic effects of various concentrations of 10(Z)-hexadecenoic acid (10 μM, 50 μM, 100 μM, 250 μM, 500 μM, 1000 μM) after 0, 6, 12, 24, 48, and 72 h of incubation with freshly isolated murine peritoneal macrophages. Percent control growth is expressed as % viability and is a ratio of the amount of growth that occurred with treatment over the amount of growth that occurred in media. […] Data are expressed as mean±SEM of 3-7 mice per condition.
Cytotoxicity was determined using the sulforhodamine B (SRB) colorimetric assay, as previously described (Vichai and Kirtikara, 2006). Briefly, without removing the culture media, cells were fixed by adding cold trichloroacetic acid and incubated at 4° C. for 1 h. The plates were washed with slow-running tap water and set out to dry overnight. Then, 0.057% SRB (Cat. No. AC333130050, Fisher, Pittsburgh, Pa., USA), solubilized in 10 mMTris (Cat. No. BP153, Fisher), was added to each well. After 30 min, plates were washed with 1% acetic acid and set out to dry overnight. SRB was measured at 490 nm on a Synergy HT microplate reader (Part Number 7091000, Biotek, Winooski, Vt., USA). Cell viability was expressed as the ratio of experimental and control growth.

## CCCCC/C=C\CCCCCCCCC(=O)OCC(COC(=O)CCCCCCCC/C=C\CCCCC)OC(=O)CCCCCCCC/C=C\CCCCC [1,2,3-tri[Z-10-hexadecenoyl]glycerol]
[1]
  IL-5 levels in the supernatant of splenocytes: decrease
  IL-10 levels in the supernatant of splenocytes: increase
[2]
  number of eosinophils recovered in the BAL fluid: reduction
  numbers of macrophages in BAL fluid: not increased
  total cellular infiltrate in BAL fluid: reduction
  IL-5 concentrations in the BAL fluid: decrease
  IL-10 concentrations in the BAL fluid: increase

## CCCCC/C=C\CCCCCCCCC(=O)O [10(Z)-hexadecenoic acid]
[3]; preincubation then LPS, n = 3, LPS alone 24
  Ccl17 mRNA Mean #Reads s148.2 + LPS: 3
[3]; preincubation then LPS, n = 3, LPS alone 26
  II11 mRNA Mean #Reads s148.2 + LPS: 5
[3]; preincubation then LPS, n = 3, LPS alone 327
  Ccl22 mRNA Mean #Reads s148.2 + LPS: 117
[3]; preincubation then LPS, n = 3, LPS alone 603
  Ccl4 mRNA Mean #Reads s148.2 + LPS: 305
[3]; preincubation then LPS, n = 3, LPS alone 714
  II12a mRNA Mean #Reads s148.2 + LPS: 268
[3]; preincubation then LPS, n = 3, LPS alone 810
  Ccl6 mRNA Mean #Reads s148.2 + LPS: 368
[3]; preincubation then LPS, n = 3, LPS alone 1182
  Ccl7 mRNA Mean #Reads s148.2 + LPS: 441
[3]; preincubation then LPS, n = 3, LPS alone 1302
  II6 mRNA Mean #Reads s148.2 + LPS: 305
[3]; preincubation then LPS, n = 3, LPS alone 2098
  Tnf mRNA Mean #Reads s148.2 + LPS: 1023
[3]; preincubation then LPS, n = 3, LPS alone 4726, functional homologue of human IL-8
  Cxcl2 mRNA Mean #Reads s148.2 + LPS: 2680
[3]; preincubation then LPS, n = 3, LPS alone 5656
  Ccl2 mRNA Mean #Reads s148.2 + LPS: 2234
[3]; preincubation then LPS, n = 3, LPS alone 6693
  Ccl3 mRNA Mean #Reads s148.2 + LPS: 4067
[3]; preincubation then LPS, n = 3, LPS alone 15,957
  II1b mRNA Mean #Reads s148.2 + LPS: 5349
[3]; preincubation then LPS, n = 3, LPS alone 16533
  II1a mRNA Mean #Reads s148.2 + LPS: 8500
[3]; vs LPS alone
  Ccl2 mRNA Effect: ↓
  Ccl2 mRNA Fold-change: 0.39
  Ccl2 mRNA Log2 Fold-change: −1.34
  Ccl3 mRNA Effect: ↓
  Ccl3 mRNA Fold-change: 0.61
  Ccl3 mRNA Log2 Fold-change: −0.72
  Ccl4 mRNA Effect: ↓
  Ccl4 mRNA Fold-change: 0.51
  Ccl4 mRNA Log2 Fold-change: −0.98
  Ccl6 mRNA Effect: ↓
  Ccl6 mRNA Fold-change: 0.45
  Ccl6 mRNA Log2 Fold-change: −1.14
  Ccl7 mRNA Effect: ↓
  Ccl7 mRNA Fold-change: 0.37
  Ccl7 mRNA Log2 Fold-change: −1.42
  Ccl17 mRNA Effect: ↓
  Ccl17 mRNA Fold-change: 0.12
  Ccl17 mRNA Log2 Fold-change: −3.08
  Ccl22 mRNA Effect: ↓
  Ccl22 mRNA Fold-change: 0.36
  Ccl22 mRNA Log2 Fold-change: −1.48
  Cxcl2 mRNA Effect: ↓
  Cxcl2 mRNA Fold-change: 0.57
  Cxcl2 mRNA Log2 Fold-change: −0.82
  II1a mRNA Effect: ↓
  II1a mRNA Fold-change: 0.51
  II1a mRNA Log2 Fold-change: −0.96
  II1b mRNA Effect: ↓
  II1b mRNA Fold-change: 0.34
  II1b mRNA Log2 Fold-change: −2.16
  II6 mRNA Effect: ↓
  II6 mRNA Fold-change: 0.23
  II6 mRNA Log2 Fold-change: −2.09
  II11 mRNA Effect: ↓
  II11 mRNA Fold-change: 0.20
  II11 mRNA Log2 Fold-change: −2.35
  II12a mRNA Effect: ↓
  II12a mRNA Fold-change: 0.37
  II12a mRNA Log2 Fold-change: −1.42
  Tnf mRNA Effect: ↓
  Tnf mRNA Fold-change: 0.49
  Tnf mRNA Log2 Fold-change: −1.04
[4]; 0.4 μM, 6 h after LPS
  LPS-induced IL-6 secretion: ineffective
[4]; 0.4 μM, 24 h after LPS
  LPS-induced IL-6 secretion: 40 % of control levels
[4]; 1 h preincubation (0.4-1000 μM), LPS 1 μg/mL, 6, 12, 24 h, vs media alone
  LPS-induced IL-6 secretion: secreted less IL-6
[4]; absence of LPS, FIG. 4D
  IL-6 secretion by itself: no effect
[2]; Experiment 6
  numbers of neutrophils in BAL fluid: did not induce increases
[2]
  number of eosinophils recovered in the BAL fluid: significant reduction
  numbers of macrophages in BAL fluid: did not induce increases
  total cellular infiltrate in BAL fluid: significant reduction
  IL-5 concentrations in the BAL fluid: decrease
  IL-10 concentrations in the BAL fluid: increase
[5]; 1 mM, at most time points (0-72 h)
  viable macrophages: less than 40%
[5]; all other concentrations (10-500 μM), vs media controls
  macrophage viability: as viable as or more viable than media controls
